Results: US6642389B2, “Oxazole derivatives” (Hoffmann-La Roche Inc., priority 2001, dated 2003)

Tests used:
[1] = target: T1, PPARγ (Mus musculus, UniProt P37238); assay: Luciferase transcriptional reporter gene assay, pFA-PPARγ-LBD in BHK21 cells; type: cell-based; conditions: Gal4-PPARγ-LBD
T1 construct: expressed in transfected cells; host or cells: BHK21 (ATCC CCL10)
T1 sequence (P37238 204-505): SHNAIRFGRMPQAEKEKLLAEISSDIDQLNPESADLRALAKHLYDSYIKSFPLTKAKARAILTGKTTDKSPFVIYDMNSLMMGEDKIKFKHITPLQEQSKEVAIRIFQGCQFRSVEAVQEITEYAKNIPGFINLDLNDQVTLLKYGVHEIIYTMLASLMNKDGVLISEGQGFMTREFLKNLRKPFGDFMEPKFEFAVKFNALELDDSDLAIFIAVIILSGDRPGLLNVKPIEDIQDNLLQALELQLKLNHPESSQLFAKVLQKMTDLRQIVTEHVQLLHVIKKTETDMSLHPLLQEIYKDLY
From the text: (§1) Full-length cDNA clones for human PPARα and mouse PPARγ were obtained by RT-PCR from human adipose and mouse liver cRNA, respectively, cloned into plasmid vectors and verified by DNA sequencing. […] To accomplish this, the portions of the cloned sequences encoding the LBDs were amplified from the full-length clones by PCR and then subcloned into the plasmid vectors pGEX4T-2(Pharmacia) and pFA-CMV(Stratagene). Final clones were verified by DNA sequence analysis.
(§2) Baby hamster kidney cells (BHK21 ATCC CCL10) were grown in DMEM medium containing 10% FBS at 37° C. in a […]:5% CO2 atmosphere. Cells were seeded in 6 well plates at a density of 10^5 Cells/well and then batch-transfected with either the pFA-PPARγ-LBD or pFA-PPARα-LBD expression plasmids plus the pFR-luc reporter plasmid (Stratagene) and an expression plasmid encoding the secretable form of alkaline phosphatase (SEAP) as a normalization control. […] Six hours following transfection, the cells were harvested by trypsinization and seeded in 96 well plates at a density of 10^4 cells/well. After 24 hours to allow attachment of cells, the medium was removed and replaced with 100 ul of phenol red-free medium containing the test substances or control ligands (final. 0.1% DMSO). Following incubation of the cells for 24 hours with substances, 50 ul of the supernatant was recovered and analyzed for SEAP activity (Roche Molecular Biochemicals). The remainder of the supernatant was discarded, 50 ul PBS was added per well followed by one volume of Luciferase Constant-Light Reagent (Roche Molecular Biochemicals) to lyse the cells and initiate the luciferase reaction. Luminescence for both SEAP and luciferase was measured in a Packard TopCount. Luciferase activity was normalized to the SEAP control and transcriptional activation in the presence of a test substance was expressed as fold-activation over cells incubated in the absence of the substance. EC50 values were calculated using the XLfit program (ID Business Solutions Ltd. UK).

[2] = target: T2, PPARα (Homo sapiens, UniProt Q07869); assay: Radioligand binding assay, PPARα receptor binding (GST-PPARα-LBD fusion protein)
T2 sequence (Q07869 167-468 limits assumed): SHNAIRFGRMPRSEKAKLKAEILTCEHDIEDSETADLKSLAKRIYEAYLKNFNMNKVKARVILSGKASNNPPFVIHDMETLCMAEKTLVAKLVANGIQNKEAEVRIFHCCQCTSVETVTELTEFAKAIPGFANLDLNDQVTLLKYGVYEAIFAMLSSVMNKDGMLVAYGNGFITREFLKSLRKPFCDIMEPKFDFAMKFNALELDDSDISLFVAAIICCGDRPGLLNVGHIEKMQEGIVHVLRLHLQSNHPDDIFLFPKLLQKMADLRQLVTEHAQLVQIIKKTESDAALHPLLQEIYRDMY
From the text: as §1
(§3) Induction, expression, and purification of GST-LBD fusion proteins were performed in E. coli strain BL21(pLysS) cells by standard methods (Ref: Current Protocols in Molecular Biology, Wiley Press, edited by Ausubel et al.).
PPARα receptor binding was assayed in TKE10 (10 mM Tris-HCl, pH 8, 50 mM KCl, 2 mM EDTA, 0.1 mg/ml fatty acid free BSA and 10 mM DTT). […]
PPARγ receptor binding was assayed in TKE50 (50 mM Tris-HCl, pH 8, 50 mM KCl, 2 mM EDTA, 0.1 mg/ml fatty acid-free BSA and 10 mM DTT). […] All binding assays were performed in 96 well plates and the amount of bound ligand measured on a Packard TopCount using OptiPlates (Packard). Nonspecific binding was determined in the presence of 10^−4 M unlabelled compound. […]

[3] = target: T2, PPARα; assay: Luciferase transcriptional reporter gene assay, pFA-PPARα-LBD in BHK21 cells; type: cell-based; design: expressed in transfected cells; host or cells: BHK21 (ATCC CCL10); conditions: Gal4-PPARα-LBD
From the text: as §1, §2

[4] = target: T3, PPARγ (Mus musculus, UniProt P37238); assay: Radioligand binding assay, PPARγ receptor binding (GST-PPARγ-LBD fusion protein, SPA); conditions: scintillation proximity
T3 construct: made in house; host or cells: E. coli BL21(pLysS)
T3 sequence (P37238 174-475 isoform P37238-2): T1 sequence (P37238 204-505)
From the text: as §1, §3
PPARγ receptor binding was assayed in TKE50 (50 mM Tris-HCl, pH 8, 50 mM KCl, 2 mM EDTA, 0.1 mg/ml fatty acid-free BSA and 10 mM DTT). For each 96 well reaction an 140 ng equivalent of GST-PPARγ-LBD fusion protein was bound to 10 ug SPA beads (PharmaciaAmersham) in a final volume of 50 ul by shaking. The resulting slurry was incubated for 1 h at RT and centrifuged for 2 min at 1300 g. The supernatant containing unbound protein was removed and the semidry pellet containing the recptor-coated beads was resolved in 50 ul of TKE. For radioligand binding e.g. 10000 dpm 2(S)-(2-benzoyl-phenylamino)-3-{4-[1,1-ditritio-2-(5-methyl-2-phenyl-oxazol-4-yl)-ethoxy]-phenyl}-propionic acid in 50 ul were added, the reaction incubated at RT for 1 h and scintillation proximity counting performed. All binding assays were performed in 96 well plates and the amount of bound ligand measured on a Packard TopCount using OptiPlates (Packard). Nonspecific binding was determined in the presence of 10^−4 M unlabelled compound. Dose response curves were done in triplicates within a range of concentration from 10^−10 M to 10^−4 M.

Row | Structure (SMILES) | melting point | EC50 [1] | IC50 [2] | EC50 [3] | IC50 [4]
1 | CCCCOC(Cc1ccc(OCCc2nc(-c3ccccc3)oc2C)c2ccccc12)C(=O)O (stereo not shown) [Example 10, 2-Butoxy-3-{4-[2-(5-methyl-2-phenyl-oxazol-4-yl)-ethoxy]-naphthalen-1-yl}-propionic acid] | 88 to 90 °C (dec.) | – | – | – | –
2 | C/C(=C/C(=O)c1ccc(C(F)(F)F)cc1)NC(Cc1ccc(OCCc2nc(-c3ccccc3)oc2C)c2ccsc12)C(=O)O (racemic) [Example 106, [rac]-2-[1-Methyl-3-oxo-3-(4-trifluoromethyl-phenyl)-(Z)-propenylamino]-3-{4-[2-(5-methyl-2-phenyl-oxazol-4-yl)-ethoxy]-benzo[b]thiophen-7-yl}-propionic acid] | – | 501 nM | 259 nM | 138 nM | 112 nM
3 | COC(Cc1ccc(OCCCc2nc(-c3ccc(Cl)cc3)oc2C)c2ccsc12)C(=O)O (racemic) [Example 48, [rac]-3-(4-{3-[2-(4-Chloro-phenyl)-5-methyl-oxazol-4-yl]-propoxy}-benzo[b]thiophen-7-yl)-2-methoxy-propionic acid] | – | 464 nM | – | 8 nM | 3170 nM
4 | CCCCOC(Cc1ccc(OCCc2nc(-c3ccccc3)oc2C)c2ccsc12)C(=O)O (stereo not shown) [Example 4, 2-Butoxy-3-{4-[2-(5-methyl-2-phenyl-oxazol-4-yl)-ethoxy]-benzo[b]thiophen-7-yl}-propionic acid] | 123 °C (dec.) | – | – | – | –
5 | CCO/C(=C\c1ccc(OCCc2nc(-c3ccccc3)oc2C)c2ccoc12)C(=O)O [Example 83, 2Z-Ethoxy-3-{4-[2-(5-methyl-2-phenyl-oxazol-4-yl)-ethoxy]-benzofuran-7-yl}-acrylic acid] | – | 188 nM | 109 nM | 746 nM | 25 nM
